Assay results as given in ChEMBL document CHEMBL1201862, “PubChem BioAssay data set” (2004).
Activity calls are given as the source filed them.

Tests used:
[1] = target: T1, Aminopeptidase N (Plasmodium falciparum FcB1/Columbia, UniProt O96935); assay: P. falciparum M1AAP inhibitors, biochemical, fluorogenic H-Leu-NHMec substrate, 1536-well (AID 1445); design: species or system Plasmodium falciparum 3D7, 3D7
T1 sequence (O96935 whole entry): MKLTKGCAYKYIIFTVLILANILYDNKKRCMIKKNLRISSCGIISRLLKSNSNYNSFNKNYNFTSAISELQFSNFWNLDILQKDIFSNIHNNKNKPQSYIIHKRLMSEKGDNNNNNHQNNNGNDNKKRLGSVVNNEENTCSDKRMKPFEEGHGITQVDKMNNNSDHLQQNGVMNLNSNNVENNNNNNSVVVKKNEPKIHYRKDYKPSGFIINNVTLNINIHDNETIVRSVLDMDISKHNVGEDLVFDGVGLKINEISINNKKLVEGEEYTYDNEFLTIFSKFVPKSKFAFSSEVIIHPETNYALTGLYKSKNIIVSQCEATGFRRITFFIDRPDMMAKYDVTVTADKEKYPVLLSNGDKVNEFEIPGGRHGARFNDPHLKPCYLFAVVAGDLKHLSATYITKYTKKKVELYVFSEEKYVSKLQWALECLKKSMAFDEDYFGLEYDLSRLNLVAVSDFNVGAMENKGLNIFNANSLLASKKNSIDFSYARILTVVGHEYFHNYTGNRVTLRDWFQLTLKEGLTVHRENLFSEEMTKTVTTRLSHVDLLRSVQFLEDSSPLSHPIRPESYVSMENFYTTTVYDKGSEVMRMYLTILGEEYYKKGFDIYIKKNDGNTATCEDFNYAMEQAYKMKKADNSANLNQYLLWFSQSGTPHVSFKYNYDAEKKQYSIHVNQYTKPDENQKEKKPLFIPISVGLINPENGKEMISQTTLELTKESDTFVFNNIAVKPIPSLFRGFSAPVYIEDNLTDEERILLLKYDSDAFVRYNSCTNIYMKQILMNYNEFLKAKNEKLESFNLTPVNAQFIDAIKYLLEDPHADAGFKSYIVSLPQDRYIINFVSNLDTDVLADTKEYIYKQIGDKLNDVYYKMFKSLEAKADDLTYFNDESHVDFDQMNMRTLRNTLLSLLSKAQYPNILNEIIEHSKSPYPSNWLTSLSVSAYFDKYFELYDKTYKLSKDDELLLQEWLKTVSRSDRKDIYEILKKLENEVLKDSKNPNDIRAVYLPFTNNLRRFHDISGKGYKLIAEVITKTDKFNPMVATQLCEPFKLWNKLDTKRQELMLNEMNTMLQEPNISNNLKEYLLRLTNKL

[2] = system: Streptococcus sp. 'group A'; assay: growth inhibition of control SK(-) GAS strain, dose response, counter-screen for streptokinase expression inhibitor project, luminescence, kanamycin, BacTiterGlo, confirmation (AID 1900); format: functional, organism-based
[3] = target: Serine/threonine-protein phosphatase PP1-alpha catalytic subunit (Homo sapiens, UniProt P62136); assay: PP1 phosphatase inhibitors, dose response, biochemical, fluorescence (AID 2403);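 note: phosphatase turnover of OMFP into fluorescent 3-O-methylfluorescein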
[4] = target: T2, Streptokinase A (Streptococcus pyogenes serotype M1, UniProt P10520); assay: S. pyogenes streptokinase expression inhibitors, potency, dose response, plasminogen activation absorbance, OD405 (AID 1914); format: functional, Streptococcus pyogenes M1 GAS;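 note: secreted streptokinase activity via plasminogen activation per viability signal from cell pellet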
T2 sequence (P10520 whole entry): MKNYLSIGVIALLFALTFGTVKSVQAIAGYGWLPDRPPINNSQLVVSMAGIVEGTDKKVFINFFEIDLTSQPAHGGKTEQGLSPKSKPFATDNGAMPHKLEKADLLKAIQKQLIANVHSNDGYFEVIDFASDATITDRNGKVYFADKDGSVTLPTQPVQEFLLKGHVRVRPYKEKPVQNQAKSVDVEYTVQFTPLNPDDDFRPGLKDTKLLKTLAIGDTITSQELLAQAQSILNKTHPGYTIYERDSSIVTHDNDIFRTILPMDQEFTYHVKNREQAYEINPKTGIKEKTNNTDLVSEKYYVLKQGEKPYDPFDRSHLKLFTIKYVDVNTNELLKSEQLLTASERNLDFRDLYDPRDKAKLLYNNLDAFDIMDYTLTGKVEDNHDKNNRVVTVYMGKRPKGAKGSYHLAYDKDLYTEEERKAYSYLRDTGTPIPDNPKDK

[5] = target: Serine/threonine-protein phosphatase (Homo sapiens, UniProt Q9BPW0); assay: Counterscreen for inhibitors of PP1: fluorescence-based biochemical high throughput dose response assay to identify inhibitors of Protein Phosphatase 5 (PP5). [Related pubchem assays: 2034 (Summary (PP5 inhibitors)), 1987 (PP5 inhibitors in singlate), 2235 (PP1 inhibitors in singlate)]
[6] = target: Induced myeloid leukemia cell differentiation protein Mcl-1 (Homo sapiens, UniProt Q07820); format: functional
[7] = system: Streptococcus; assay: Group A Streptococcus viability loss, dose response, counter-screen for streptokinase expression inhibitor project, luminescence, BacTiterGlo (AID 1915); format: functional, organism-based;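 note: potency for reduction of bacterial viability or growth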
[8] = target: Wee1-like protein kinase (Homo sapiens, UniProt P30291); assay: G2/M cell cycle arrest in HeLa, late-stage follow-up, mechanism study for Wee1 degradation inhibitor project, FACS, panel member Wee1 Degradation (AID 2088)
[9] = target: G2/mitotic-specific cyclin-B1 (Homo sapiens, UniProt P14635); assay: G2/M cell cycle arrest in HeLa, late-stage follow-up, mechanism study for Wee1 degradation inhibitor project, FACS, panel member Cyclin B Degradation (AID 2088)
[10] = cells; format: functional, cell-based
[11] = cells; format: functional, cell-based; remark: listed apart in the source
[12] = system: HeLa; assay: HeLa cell cytotoxicity, dose response, cytotoxicity control, 24 h, cherry-picked samples (AID 504726); format: functional, cell-based; details: Homo sapiens;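 note: potency for cytotoxicity as loss of luminescence signal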
[13] = system: Salmon testes DNA; assay: DNA intercalators displacing acridine orange, dose response, artefact control for KSHV LANA DNA-binding inhibitor project, biochemical, fluorescence polarization, cherry-picked samples, set 2 (AID 504727); design: species or system Salmonidae
[14] = cells; format: functional
[15] = target: T3, Neuropeptides B/W receptor type 1 (Homo sapiens, UniProt P48145); assay: Fluorescence-based dose response cell-based high throughput screening assay to identify antagonists of the G-protein coupled receptor 7 (GPR7). [Related pubchem assays: 1952 (Screening assay (GPR7 antagonists).), 1880 (Summary AID.)]; format: functional
T3 sequence (P48145 whole entry): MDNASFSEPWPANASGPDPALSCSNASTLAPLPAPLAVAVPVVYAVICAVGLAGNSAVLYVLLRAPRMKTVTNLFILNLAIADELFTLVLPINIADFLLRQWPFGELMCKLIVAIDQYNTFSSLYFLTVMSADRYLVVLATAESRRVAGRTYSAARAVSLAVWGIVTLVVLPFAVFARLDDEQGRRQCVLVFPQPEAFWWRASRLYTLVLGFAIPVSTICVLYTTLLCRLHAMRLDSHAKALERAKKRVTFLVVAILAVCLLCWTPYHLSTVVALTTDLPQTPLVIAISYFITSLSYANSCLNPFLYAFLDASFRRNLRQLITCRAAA

[16] = target: Melanin-concentrating hormone receptor 1 (Homo sapiens, UniProt Q99705); assay: Fluorescence-based counterscreen for antagonists of the G-protein coupled receptor 7 (GPR7): cell-based high throughput dose response assay to identify antagonists of the melanin-concentrating hormone receptor 1 (MCHR1).; format: functional
[17] = target: Cytochrome P450 2C9 (Homo sapiens, UniProt P11712); details: Potency
[18] = target: T4, Tyrosine-protein phosphatase non-receptor type 7 (Homo sapiens, UniProt P35236); format: functional
T4 sequence (P35236 whole entry): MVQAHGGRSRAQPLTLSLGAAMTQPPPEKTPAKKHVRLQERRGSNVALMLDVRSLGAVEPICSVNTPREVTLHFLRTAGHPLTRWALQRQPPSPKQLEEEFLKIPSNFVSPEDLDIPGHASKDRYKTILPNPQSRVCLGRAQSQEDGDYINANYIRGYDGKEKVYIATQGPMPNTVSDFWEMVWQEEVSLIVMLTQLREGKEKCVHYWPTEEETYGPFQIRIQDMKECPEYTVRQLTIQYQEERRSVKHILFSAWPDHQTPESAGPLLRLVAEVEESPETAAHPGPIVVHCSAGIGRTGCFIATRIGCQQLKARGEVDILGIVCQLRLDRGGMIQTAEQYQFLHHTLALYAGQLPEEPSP

[19] = target: T5, Bcl-2-like protein 10 (Homo sapiens, UniProt Q9HD36); assay: displacers of TR3 peptide from Bcl-B, primary screen, selectivity assay for Bfl-1 inhibitor project, biochemical, fluorescence polarization, FITC-TR3 peptide (AID 748);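 note: fluorescence polarization from a fluorescein-labelled TR3 peptide binding purified Bcl-B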
T5 sequence (Q9HD36 whole entry): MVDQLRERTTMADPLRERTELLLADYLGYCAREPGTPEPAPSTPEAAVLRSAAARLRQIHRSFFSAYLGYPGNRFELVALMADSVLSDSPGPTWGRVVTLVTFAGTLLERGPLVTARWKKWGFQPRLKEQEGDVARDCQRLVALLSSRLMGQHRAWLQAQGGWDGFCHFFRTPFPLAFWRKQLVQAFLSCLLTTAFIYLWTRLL

[20] = target: Glyceraldehyde-3-phosphate dehydrogenase (Homo sapiens, UniProt P04406)
[21] = target: Heat shock cognate 71 kDa protein (Homo sapiens, UniProt P11142); assay: In Vitro Hsc70 Dose Response Fluorescence Polarization Assay. [Related pubchem assays: 1072 ]
[22] = target: Large T antigen (Simian virus 40, UniProt P03070); format: functional, Betapolyomavirus macacae;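 note: Confirmatory-stage PubChem screen for compounds that inhibit SV40 T antigen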
[23] = target: T6, E3 ubiquitin-protein ligase XIAP (Homo sapiens, UniProt P98170); assay: Counter Screen using XIAP-Bir3 for Chemical Antagonists of Bir1/2 domains of IAP-family anti-apoptotic proteins. [Related pubchem assays (depositor defined):AID1018, AID1449, AID1514, AID1638, AID1749, AID1750, AID488957, AID488963]
[24] = target: T6, E3 ubiquitin-protein ligase XIAP; assay: XIAP antagonists, biochemical, IAP family, fluorescence polarization (AID 1018); format: functional
[25] = target: Heat shock 70 kDa protein 1A (Homo sapiens, UniProt P0DMV8); assay: Hsp70 inhibitors, SAR follow-up, biochemical, fluorescence polarization (AID 1072)
[26] = target: T7, Dual specificity protein phosphatase 6 (Rattus norvegicus, UniProt Q64346)
T7 sequence (Q64346 whole entry): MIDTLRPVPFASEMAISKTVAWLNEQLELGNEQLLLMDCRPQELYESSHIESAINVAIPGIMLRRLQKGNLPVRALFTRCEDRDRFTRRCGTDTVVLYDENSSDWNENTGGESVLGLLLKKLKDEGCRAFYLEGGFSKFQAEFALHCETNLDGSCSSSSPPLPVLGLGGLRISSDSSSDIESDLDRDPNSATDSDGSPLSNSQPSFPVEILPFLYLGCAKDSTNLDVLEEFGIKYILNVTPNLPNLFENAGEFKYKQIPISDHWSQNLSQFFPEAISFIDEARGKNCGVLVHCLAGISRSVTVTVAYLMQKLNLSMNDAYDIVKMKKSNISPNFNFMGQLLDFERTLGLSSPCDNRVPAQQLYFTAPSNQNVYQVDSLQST

[27] = target: T7, Dual specificity protein phosphatase 6; assay: MKP-3 phosphatase inhibitors, primary screen, biochemical, rat enzyme, in vitro (AID 425)
[28] = target: Eukaryotic translation initiation factor 4E (Mus musculus, UniProt P63073); assay: eIF4E–eIF4G protein interaction inhibitors, dose response, biochemical, TR-FRET (AID 855); format: functional;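 note: potency for disrupting eIF4E binding to eIF4GI seen as loss of FRET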
[29] = target: T7, Dual specificity protein phosphatase 6; format: functional
[30] = target: Transitional endoplasmic reticulum ATPase (Homo sapiens, UniProt P55072, C522A); assay: Luminescence counterscreen assay for p97 inhibitors: dose response biochemical high throughput screening assay to identify inhibitors of the C522A mutant p97 ATPase: synthesized compounds. [Related pubchem assays: 1481, 1517, 1551 ]
[31] = target: Transitional endoplasmic reticulum ATPase (Homo sapiens, UniProt P55072); assay: Luminescence dose response biochemical high throughput screening assay for inhibitors of the p97 ATPase: synthesized compounds. [Related pubchem assays: 1481, 1517 ]
[32] = Luminescence Cell-Based Dose Retest to Confirm Inhibitors of Cancer Stem Cells. [Related pubchem assays (depositor defined):AID2717, AID2721]; format: functional; details: Homo sapiens
[33] = target: T8, Ubiquitin-conjugating enzyme E2 N (Homo sapiens, UniProt P61088); format: functional;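 note: Dose-response confirmation in a TR-FRET assay detecting UBC13-driven polyubiquitin chain formation, inhibition measured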
T8 sequence (P61088 whole entry): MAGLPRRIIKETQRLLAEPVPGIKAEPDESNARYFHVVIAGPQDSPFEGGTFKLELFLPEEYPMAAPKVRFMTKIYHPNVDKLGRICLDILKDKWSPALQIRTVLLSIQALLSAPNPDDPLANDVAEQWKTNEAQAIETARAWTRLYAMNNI

[34] = target: Neurotensin receptor type 1 (Homo sapiens, UniProt P30989); format: functional;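 note: Image-based confirmatory dose-response assay measuring agonist activity at NTR1; NTR1-expressing U2OS osteosarcoma cells imaged for beta-arrestin GFP spot formation; agonist potency where compounds increase beta-arrestin recruitment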
Chain of Neurotensin receptor type 1 (P30989 whole entry): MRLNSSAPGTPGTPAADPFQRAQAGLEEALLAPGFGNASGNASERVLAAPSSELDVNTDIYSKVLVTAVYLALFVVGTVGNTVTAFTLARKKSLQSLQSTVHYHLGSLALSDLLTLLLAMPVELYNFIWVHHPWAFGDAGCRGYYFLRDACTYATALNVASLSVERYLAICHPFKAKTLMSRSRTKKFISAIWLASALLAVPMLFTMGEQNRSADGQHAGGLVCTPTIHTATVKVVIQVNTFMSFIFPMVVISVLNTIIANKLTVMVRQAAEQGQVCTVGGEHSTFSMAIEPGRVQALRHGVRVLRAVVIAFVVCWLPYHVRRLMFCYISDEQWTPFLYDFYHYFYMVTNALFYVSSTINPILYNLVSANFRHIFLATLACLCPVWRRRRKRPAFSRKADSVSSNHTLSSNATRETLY

T6 sequence (P98170 whole entry): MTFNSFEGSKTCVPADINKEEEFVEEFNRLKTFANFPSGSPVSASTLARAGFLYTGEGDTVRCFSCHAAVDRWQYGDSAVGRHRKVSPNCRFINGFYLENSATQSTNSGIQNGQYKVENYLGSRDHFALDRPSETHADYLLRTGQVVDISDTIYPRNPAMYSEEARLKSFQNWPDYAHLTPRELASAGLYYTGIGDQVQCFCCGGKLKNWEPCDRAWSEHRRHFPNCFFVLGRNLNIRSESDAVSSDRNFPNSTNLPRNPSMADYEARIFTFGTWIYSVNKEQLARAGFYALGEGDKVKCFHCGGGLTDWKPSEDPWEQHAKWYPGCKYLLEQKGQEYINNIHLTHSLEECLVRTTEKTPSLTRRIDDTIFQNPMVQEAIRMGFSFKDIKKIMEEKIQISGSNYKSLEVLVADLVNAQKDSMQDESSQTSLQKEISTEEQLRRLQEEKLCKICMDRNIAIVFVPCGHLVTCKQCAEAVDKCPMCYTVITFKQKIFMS
Chain of Induced myeloid leukemia cell differentiation protein Mcl-1 (Q07820 whole entry): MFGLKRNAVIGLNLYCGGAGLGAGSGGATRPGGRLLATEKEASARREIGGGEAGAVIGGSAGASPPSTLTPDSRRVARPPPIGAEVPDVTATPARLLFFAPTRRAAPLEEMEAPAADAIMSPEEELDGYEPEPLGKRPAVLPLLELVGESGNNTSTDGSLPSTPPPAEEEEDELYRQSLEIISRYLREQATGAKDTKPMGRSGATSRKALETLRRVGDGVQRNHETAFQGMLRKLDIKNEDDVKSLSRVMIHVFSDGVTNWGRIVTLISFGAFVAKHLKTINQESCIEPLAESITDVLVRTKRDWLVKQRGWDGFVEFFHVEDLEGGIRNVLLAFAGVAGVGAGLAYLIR
Chain of Serine/threonine-protein phosphatase PP1-alpha catalytic subunit (P62136 whole entry): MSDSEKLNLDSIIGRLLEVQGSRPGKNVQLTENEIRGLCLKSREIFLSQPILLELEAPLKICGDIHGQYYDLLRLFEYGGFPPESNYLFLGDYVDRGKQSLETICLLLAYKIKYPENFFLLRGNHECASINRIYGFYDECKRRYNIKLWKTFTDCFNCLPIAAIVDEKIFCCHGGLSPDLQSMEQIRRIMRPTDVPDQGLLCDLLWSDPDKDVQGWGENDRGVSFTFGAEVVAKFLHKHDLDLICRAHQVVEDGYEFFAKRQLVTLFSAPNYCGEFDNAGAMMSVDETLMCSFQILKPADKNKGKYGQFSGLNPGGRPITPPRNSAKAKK
Chain of Transitional endoplasmic reticulum ATPase (Homo sapiens, UniProt P55072, C522A) (P55072 2-806 C522A limits assumed): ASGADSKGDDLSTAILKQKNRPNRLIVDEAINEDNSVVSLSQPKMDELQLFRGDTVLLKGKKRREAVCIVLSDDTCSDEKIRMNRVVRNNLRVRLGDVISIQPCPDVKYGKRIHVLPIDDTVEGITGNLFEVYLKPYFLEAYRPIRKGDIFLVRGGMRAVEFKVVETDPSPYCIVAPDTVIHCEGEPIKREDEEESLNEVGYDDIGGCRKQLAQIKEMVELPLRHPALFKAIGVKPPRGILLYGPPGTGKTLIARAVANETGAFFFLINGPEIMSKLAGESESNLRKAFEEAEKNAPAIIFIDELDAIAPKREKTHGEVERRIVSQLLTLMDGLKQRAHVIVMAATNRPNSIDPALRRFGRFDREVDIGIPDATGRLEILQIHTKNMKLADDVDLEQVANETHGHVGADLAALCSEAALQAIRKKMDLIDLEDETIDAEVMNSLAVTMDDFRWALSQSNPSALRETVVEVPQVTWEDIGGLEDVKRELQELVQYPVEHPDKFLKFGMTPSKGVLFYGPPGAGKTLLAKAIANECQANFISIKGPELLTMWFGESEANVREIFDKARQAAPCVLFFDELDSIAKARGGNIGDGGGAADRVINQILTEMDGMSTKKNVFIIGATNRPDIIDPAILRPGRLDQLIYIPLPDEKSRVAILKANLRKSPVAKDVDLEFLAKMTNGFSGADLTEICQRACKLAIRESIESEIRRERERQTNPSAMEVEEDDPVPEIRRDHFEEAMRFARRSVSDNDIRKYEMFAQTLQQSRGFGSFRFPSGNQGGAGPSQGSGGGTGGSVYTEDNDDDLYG
Chain of Heat shock 70 kDa protein 1A (P0DMV8 whole entry): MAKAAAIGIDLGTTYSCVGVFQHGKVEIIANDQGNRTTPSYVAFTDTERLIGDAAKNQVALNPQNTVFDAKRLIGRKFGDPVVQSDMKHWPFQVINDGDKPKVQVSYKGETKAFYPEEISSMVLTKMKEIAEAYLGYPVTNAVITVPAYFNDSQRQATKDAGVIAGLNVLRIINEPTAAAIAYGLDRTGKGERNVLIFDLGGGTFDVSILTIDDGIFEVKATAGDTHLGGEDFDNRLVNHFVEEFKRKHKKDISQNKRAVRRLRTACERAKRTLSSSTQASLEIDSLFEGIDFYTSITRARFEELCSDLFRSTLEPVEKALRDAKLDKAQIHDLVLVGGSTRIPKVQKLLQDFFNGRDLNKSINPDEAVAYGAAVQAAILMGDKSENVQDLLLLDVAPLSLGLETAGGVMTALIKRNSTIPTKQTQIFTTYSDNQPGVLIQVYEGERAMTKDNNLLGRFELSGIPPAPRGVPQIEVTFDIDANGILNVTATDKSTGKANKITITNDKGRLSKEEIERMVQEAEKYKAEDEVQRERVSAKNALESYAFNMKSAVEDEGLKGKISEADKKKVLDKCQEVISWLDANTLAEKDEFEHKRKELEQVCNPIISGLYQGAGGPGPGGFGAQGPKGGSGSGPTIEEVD
Chain of Wee1-like protein kinase (P30291 whole entry): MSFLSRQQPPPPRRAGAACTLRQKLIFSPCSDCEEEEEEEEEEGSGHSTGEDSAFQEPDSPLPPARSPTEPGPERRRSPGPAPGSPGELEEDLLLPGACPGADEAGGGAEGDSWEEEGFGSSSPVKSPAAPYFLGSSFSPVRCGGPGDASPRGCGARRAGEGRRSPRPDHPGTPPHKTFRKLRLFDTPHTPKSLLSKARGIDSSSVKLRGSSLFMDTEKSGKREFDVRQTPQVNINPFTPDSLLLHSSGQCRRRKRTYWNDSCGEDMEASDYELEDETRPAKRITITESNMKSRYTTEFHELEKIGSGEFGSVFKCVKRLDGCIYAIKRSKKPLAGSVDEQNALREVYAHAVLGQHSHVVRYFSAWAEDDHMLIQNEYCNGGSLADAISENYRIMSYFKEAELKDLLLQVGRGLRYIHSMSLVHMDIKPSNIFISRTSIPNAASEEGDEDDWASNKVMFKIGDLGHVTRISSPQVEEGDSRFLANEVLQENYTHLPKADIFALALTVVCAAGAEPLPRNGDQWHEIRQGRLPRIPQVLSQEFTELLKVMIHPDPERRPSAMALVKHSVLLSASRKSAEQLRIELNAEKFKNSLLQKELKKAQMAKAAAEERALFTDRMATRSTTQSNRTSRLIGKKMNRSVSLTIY
Chain of Large T antigen (P03070 whole entry): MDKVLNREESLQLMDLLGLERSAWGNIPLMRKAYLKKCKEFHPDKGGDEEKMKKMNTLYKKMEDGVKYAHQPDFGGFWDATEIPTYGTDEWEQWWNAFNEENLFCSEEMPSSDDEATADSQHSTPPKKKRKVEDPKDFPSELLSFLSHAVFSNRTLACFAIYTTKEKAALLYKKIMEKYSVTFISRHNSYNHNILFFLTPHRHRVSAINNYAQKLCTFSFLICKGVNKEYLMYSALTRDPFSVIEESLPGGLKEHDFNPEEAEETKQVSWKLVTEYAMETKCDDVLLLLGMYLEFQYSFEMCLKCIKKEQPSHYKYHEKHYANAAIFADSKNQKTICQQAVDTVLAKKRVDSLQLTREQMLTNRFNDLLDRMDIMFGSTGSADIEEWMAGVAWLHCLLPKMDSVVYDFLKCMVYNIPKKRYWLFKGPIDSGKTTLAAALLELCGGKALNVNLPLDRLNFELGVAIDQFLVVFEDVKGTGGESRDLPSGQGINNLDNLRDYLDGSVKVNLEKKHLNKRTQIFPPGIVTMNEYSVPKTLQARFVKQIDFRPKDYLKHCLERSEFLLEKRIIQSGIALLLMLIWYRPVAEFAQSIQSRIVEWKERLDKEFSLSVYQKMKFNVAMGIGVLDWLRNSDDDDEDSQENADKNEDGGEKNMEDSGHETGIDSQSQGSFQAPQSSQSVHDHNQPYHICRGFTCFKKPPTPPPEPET
Chain of Melanin-concentrating hormone receptor 1 (Q99705 whole entry): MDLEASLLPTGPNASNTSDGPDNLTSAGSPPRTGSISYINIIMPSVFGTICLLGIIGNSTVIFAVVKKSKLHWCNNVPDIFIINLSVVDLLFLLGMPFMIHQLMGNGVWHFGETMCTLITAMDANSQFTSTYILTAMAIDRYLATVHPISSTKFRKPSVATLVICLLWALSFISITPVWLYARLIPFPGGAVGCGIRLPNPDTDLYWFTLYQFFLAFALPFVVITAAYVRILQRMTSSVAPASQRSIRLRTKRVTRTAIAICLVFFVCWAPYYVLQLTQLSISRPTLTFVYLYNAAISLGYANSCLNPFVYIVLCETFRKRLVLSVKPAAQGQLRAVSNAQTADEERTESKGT
Chain of Eukaryotic translation initiation factor 4E (P63073 whole entry): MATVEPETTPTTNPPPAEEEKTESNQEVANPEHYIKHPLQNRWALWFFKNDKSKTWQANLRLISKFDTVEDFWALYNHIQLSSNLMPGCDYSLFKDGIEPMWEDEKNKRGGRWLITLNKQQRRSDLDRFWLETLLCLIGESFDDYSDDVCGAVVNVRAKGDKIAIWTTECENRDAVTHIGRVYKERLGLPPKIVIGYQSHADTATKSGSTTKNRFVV

## CCOC(=O)c1sc2nc3c(SCC(=O)O)cc(C(=O)c4cc(F)ccc4O)cn3c(=O)c2c1C
[1]
  IC50: 21.9 µM (active)
[2]
  EC50: 1.86 µM (active)
[3]
  IC50: 5.11 µM (active)
[4]
  EC50: 15.4 µM (active)
[5]
  IC50: > 67 µM (not active)
[6]
  IC50: 2.63 µM (active)
[7]
  EC50: 141 µM (active)

## Cc1cccc(OCC(=O)Nc2cc(C)nn2-c2nc(C)cc(=O)[nH]2)c1
[8]
  EC50: > 16.6 µM (active)
[9]
  EC50: > 49.7 µM (inactive)

## CCOC(=O)c1c(C)nc2cc(C)ccn12
[10]
  EC50: > 350 µM (not active)
[11]
  EC50: > 350 µM (not active)
[12]
  AC50: 69.7 µM (active)
[13]
  AC50: 285 µM (active)
[14]
  IC50: 28.4 µM (active)

## CCCCNc1nc2ccccc2n1CC(=O)Nc1c(C)cccc1CC
[15]
  IC50: > 43.8 µM (not active)
[16]
  IC50: 31.7 µM (not active)

## Cc1ccccc1OC1C=CC(C#Cc2ccc(Br)cc2)OC1CO (stereo not given)
[17]
  AC50: 3.98 µM (inconclusive)

## CCOC(=O)c1ccc2c(c1)C1C=CCC1C(C(=O)O)N2 (stereo not given)
[18]
  IC50: 2.18 µM (active)
[19]
  IC50: 1.08 µM (active)
[20]
  IC50: 95.4 µM (active)
[21]
  IC50: 27 µM (active)
[22]
  IC50: 14.2 µM (active)
[23]
  IC50: > 1.56 µM (inactive)
[24]
  IC50: > 100 µM (not active)
[25]
  IC50: 5.56 µM (active)
[26]
  IC50: 14.7 µM (active)
[27]
  IC50: > 10 µM (not active)
[6]
  IC50: 0.997 µM (active)
[28]
  IC50: 10.2 µM (active)
[29]
  IC50: 9.87 µM (active)

## N#Cc1ccc(Nc2nc(-c3ccc(O)cc3O)cs2)cc1C(F)(F)F
[30]
  IC50: > 50 µM (not active)
[31]
  IC50: 13.5 µM (not active)
[32]
  AC50: 4.98 µM (active)
[33]
  IC50: > 20 µM (inactive)
[34]
  EC50: 9.59 µM (active)
